# Experimental data reported in patent US20170087174A1, “COMBINATION THERAPY REGIMEN FOR TREATMENT OF HCV” (JANSSEN PHARMACEUTICALS, INC., priority 2015, published 2017).
# Key:
# OATP1B3 = molecular target: T1, OATP1B3 (Homo sapiens, UniProt Q9NPD5); settings: in vitro; cited from earlier work
# T1 sequence (Q9NPD5 1-702): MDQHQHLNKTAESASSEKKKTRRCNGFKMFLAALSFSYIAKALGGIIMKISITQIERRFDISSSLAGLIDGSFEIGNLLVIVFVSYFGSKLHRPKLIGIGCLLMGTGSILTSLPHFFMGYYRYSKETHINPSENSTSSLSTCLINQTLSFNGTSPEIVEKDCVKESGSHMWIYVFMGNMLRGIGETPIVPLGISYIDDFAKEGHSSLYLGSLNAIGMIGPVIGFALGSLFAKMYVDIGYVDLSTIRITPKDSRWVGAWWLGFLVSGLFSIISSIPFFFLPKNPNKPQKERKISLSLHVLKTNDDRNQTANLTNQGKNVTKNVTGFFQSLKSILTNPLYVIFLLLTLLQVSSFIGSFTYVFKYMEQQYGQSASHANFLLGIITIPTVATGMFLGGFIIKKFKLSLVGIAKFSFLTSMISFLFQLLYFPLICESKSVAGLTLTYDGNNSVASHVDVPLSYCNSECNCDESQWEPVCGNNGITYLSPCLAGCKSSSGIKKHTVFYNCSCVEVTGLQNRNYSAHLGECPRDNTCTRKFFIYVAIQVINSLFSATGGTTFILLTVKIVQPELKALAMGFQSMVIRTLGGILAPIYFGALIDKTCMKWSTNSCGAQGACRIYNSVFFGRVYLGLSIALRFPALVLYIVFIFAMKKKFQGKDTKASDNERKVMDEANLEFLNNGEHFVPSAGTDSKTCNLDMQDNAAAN
# [1] = Phase 2a open-label combination study: pharmacokinetics (exposure); type: in vivo, human
# Experimental: A randomized, Phase 2a, open-label study was carried out to evaluate the safety, pharmacokinetics and efficacy of the combination of Compound (III), Odalasvir and Simeprevir in Genotype 1 treatment-naïve subjects with chronic hepatitis C. Other treatment-naïve subjects included Genotype 2, 3, 4, 5 and 6.
# The aim of the study was to determine the efficacy, pharmacokinetics (PK), and safety of Compound (III)+Odalasvir±SMV in HCV-infected subjects.
# This was an open-label study evaluating various dosing regimens of Compound (III)+Odalasvir±SMV for 6-8 weeks in treatment-naïve HCV-infected subjects with varying clinical characteristics (e.g., GT 1 or 3, presence/absence of compensated Child Pugh A cirrhosis). Efficacy, PK and safety evaluations were conducted during and through 24 weeks post dosing. Up to 15 cohorts were enrolled; data was generated from cohorts that have completed dosing.
# BSEP = BSEP (Homo sapiens, UniProt O95342); settings: in vitro, cited from earlier work
# 2B6 = molecular target: T2, 2B6 (Homo sapiens, UniProt P20813); assay: CYP2B6 inhibition; type: in vitro ADME; settings: up to 10 μM
# T2 sequence (P20813 1-491): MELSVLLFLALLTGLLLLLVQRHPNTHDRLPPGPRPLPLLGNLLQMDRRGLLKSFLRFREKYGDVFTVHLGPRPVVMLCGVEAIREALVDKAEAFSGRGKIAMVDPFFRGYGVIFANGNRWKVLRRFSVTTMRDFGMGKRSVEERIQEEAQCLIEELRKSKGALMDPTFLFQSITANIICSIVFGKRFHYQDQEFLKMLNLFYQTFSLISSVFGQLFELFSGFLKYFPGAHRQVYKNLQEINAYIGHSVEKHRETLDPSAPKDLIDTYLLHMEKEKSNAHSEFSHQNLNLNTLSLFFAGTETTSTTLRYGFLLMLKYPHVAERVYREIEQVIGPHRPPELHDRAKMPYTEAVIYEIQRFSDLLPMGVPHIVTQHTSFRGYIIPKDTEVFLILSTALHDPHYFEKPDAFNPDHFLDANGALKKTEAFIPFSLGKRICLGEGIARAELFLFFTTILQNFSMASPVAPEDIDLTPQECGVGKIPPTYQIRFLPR
# MRP2/3 = MRP2/3 (Homo sapiens, UniProt O15438); settings: in vitro; cited from earlier work
# MRP2 = MRP2 (Homo sapiens, UniProt Q92887); settings: in vitro, cited from earlier work
# CYP3A4/5 = CYP3A4/5 inhibition; type: in vitro ADME; settings: up to 10 μM
# NTCP = molecular target: T3, NTCP (Homo sapiens, UniProt Q14973); settings: in vitro; read-out: other OATPs NTCP inhibition IC50; cited from earlier work
# T3 sequence (Q14973 1-349): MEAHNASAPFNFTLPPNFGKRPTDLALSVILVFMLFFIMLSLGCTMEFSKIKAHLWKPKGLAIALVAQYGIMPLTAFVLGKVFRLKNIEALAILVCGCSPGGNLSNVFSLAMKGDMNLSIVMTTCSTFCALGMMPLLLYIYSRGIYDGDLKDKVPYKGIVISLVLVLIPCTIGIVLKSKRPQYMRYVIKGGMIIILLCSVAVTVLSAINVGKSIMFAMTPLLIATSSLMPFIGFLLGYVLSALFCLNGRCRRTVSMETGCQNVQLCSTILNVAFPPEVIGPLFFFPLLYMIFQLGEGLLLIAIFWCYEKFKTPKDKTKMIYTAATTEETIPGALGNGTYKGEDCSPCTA
# [2] = tested on: Digoxin (a pgp-substrate); settings: SMV co-administered with Digoxin; cited from earlier work
# [3] = tested on: Rosuvastatin (substrate of OATPs & BCRP); settings: SMV co-administered with Rosuvastatin; cited from earlier work
# CYP3A4 = CYP3A4 induction; type: in vitro ADME; settings: up to 10 μM
# CYP1A2 = CYP1A2 induction; type: in vitro ADME; settings: up to 10 μM
# Chain of MRP2 (Q92887 whole entry): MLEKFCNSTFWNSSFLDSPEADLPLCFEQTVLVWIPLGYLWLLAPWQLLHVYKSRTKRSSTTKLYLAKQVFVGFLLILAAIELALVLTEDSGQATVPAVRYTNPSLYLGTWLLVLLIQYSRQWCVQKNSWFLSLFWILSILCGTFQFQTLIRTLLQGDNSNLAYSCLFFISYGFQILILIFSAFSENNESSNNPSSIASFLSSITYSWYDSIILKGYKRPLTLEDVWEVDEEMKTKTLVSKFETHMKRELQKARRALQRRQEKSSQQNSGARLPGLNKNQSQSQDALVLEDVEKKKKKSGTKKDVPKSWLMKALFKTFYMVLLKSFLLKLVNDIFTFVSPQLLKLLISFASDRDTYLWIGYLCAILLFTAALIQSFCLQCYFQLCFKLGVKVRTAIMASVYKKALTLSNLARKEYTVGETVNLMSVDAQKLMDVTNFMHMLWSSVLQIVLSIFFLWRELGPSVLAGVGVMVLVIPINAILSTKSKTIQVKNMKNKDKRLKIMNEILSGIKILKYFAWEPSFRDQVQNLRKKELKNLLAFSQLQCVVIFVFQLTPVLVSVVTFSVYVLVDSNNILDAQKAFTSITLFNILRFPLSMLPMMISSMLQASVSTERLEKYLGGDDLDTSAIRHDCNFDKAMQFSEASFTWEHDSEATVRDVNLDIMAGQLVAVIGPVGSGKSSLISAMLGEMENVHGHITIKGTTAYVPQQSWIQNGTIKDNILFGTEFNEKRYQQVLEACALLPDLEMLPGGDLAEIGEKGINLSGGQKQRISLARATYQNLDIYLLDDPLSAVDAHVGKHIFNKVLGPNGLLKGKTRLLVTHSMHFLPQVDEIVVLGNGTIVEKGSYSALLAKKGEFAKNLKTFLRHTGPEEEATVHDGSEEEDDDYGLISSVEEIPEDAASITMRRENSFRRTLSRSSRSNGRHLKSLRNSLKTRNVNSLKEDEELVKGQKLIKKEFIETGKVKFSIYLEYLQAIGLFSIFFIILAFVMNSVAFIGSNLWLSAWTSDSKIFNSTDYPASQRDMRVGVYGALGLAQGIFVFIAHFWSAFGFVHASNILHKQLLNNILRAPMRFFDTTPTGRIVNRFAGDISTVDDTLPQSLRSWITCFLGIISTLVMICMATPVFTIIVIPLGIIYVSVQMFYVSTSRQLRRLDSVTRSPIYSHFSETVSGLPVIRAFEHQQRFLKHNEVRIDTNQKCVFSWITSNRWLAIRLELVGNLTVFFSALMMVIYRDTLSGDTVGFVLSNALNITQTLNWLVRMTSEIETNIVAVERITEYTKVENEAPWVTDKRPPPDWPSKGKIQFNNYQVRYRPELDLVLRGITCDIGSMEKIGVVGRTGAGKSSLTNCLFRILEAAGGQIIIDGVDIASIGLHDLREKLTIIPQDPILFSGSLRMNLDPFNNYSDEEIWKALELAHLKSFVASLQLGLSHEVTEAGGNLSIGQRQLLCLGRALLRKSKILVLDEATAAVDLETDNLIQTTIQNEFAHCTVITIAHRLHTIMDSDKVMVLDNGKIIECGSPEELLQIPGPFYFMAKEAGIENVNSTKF
# Chain of BSEP (O95342 whole entry): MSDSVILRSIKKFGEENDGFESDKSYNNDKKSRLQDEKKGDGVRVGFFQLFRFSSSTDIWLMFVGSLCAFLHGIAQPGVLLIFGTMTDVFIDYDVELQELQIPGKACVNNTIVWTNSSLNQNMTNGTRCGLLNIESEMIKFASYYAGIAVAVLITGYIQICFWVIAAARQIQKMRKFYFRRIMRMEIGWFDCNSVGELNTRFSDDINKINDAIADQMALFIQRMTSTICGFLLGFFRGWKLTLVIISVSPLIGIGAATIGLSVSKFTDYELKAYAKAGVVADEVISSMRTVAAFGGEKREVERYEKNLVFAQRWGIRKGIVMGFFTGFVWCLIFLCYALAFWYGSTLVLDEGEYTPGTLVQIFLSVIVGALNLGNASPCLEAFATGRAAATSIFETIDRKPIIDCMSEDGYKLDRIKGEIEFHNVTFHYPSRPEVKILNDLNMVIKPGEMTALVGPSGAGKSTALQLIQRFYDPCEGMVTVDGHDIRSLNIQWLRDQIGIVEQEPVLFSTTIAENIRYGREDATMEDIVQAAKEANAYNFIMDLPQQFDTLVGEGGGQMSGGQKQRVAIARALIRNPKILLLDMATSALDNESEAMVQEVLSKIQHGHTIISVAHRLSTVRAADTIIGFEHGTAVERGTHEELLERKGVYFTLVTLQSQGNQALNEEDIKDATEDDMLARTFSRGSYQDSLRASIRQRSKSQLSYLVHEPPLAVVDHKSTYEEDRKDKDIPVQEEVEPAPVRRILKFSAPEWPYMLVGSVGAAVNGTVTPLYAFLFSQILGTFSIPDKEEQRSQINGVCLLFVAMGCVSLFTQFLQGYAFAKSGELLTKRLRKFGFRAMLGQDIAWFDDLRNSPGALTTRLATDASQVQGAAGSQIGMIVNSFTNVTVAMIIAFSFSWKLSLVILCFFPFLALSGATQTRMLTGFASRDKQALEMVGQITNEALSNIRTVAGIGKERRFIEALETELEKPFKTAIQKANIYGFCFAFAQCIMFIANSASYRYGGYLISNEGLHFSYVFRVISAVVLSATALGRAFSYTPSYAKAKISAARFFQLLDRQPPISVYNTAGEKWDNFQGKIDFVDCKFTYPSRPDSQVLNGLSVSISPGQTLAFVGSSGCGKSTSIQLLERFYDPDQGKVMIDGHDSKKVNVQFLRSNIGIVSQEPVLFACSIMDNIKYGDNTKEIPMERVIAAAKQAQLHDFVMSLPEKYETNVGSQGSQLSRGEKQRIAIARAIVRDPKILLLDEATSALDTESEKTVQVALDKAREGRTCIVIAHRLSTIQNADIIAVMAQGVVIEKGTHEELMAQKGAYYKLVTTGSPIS
# Chain of MRP2/3 (O15438 whole entry): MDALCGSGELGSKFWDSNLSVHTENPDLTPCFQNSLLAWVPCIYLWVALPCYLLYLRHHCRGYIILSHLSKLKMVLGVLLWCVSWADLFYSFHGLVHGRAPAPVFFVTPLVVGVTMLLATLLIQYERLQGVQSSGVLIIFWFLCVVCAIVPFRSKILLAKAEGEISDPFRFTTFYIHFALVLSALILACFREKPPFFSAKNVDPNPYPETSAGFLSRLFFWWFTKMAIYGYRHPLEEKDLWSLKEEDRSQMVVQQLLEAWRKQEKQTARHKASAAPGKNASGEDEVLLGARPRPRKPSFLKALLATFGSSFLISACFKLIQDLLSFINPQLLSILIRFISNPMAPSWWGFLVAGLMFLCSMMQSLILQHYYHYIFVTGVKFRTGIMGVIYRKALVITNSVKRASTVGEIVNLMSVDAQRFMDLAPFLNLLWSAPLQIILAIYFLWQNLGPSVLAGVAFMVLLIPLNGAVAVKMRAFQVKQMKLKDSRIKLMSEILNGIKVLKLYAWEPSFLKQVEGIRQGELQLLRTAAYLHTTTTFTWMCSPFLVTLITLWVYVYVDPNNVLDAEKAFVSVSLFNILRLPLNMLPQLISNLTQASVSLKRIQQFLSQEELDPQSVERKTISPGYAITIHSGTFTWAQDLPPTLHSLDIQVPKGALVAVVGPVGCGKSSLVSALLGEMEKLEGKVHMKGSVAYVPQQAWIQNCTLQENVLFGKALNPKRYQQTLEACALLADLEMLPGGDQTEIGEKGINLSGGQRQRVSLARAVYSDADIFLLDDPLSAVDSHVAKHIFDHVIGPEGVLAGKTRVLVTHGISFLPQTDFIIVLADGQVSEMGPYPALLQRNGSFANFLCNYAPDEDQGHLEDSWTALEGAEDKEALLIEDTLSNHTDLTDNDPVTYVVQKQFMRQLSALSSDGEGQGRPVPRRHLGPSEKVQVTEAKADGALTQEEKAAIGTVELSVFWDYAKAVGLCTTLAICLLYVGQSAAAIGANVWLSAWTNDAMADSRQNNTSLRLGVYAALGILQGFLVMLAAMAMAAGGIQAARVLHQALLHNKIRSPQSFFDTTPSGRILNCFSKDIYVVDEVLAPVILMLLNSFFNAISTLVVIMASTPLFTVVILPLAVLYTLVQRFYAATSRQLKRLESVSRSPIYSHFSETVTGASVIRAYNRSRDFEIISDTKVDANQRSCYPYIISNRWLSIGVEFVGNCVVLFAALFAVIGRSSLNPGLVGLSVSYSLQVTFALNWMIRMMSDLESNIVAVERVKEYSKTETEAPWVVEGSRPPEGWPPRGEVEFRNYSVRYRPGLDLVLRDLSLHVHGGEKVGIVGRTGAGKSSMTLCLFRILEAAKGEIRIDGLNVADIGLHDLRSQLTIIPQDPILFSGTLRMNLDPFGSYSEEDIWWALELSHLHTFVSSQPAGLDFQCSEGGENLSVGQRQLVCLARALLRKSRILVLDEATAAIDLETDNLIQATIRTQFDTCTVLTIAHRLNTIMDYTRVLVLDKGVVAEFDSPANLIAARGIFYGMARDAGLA
observed exposure versus anticipated ([1]; Cohort 1 / group (i)),decrease of exposure with dosing frequency ([1]; reducing ODV dosing from QD to QOD),inhibition of 2B6 (2B6),inhibition of CYP3A4/5 (CYP3A4/5),Structure (SMILES),OATP1B3 inhibition (in words) (OATP1B3),BSEP inhibition (in words) (BSEP),MRP3 inhibition (in words) (MRP2/3),MRP2 inhibition (in words) (MRP2),decrease of exposure with dose ([1]; in vivo),observed exposure versus anticipated ([1]; in vivo),IC50 (BSEP; read-out: BSEP inhibition IC50),IC50 (NTCP),increase in exposure of Digoxin [2],increase in Rosuvastatin exposure [3],IC50 (MRP2; read-out: MRP2 inhibition IC50),induction of CYP3A4 (CYP3A4),induction of CYP1A2 (CYP1A2)
,,,,"CC(C)OC(=O)[C@H](C)N[P@](=O)(OC[C@@]1(F)O[C@@H](n2ccc(=O)[nH]c2=O)[C@](C)(O)[C@@H]1O)Oc1ccccc1 [Compound (III), isopropyl ((S)-(((2S,3S,4R,5R)-5-(2,4-dioxo-3,4-dihydropyrimidin-1 (2H)-yl)-2-fluoro-3,4-dihydroxy-4-methyltetrahydrofuran-2-yl)methoxy)(phenoxy)phosphoryl)-L-alaninate]",no in vitro inhibition,,,,,,,,,,,,
higher than anticipated,proportionally,no inhibition,no inhibition,"COC(=O)N[C@H](C(=O)N1[C@H](c2nc3cc(-c4cc5ccc4CCc4ccc(c(-c6ccc7[nH]c([C@@H]8C[C@@H]9CCCC[C@@H]9N8C(=O)[C@@H](NC(=O)OC)C(C)C)nc7c6)c4)CC5)ccc3[nH]2)C[C@@H]2CCCC[C@@H]21)C(C)C [ODV, Odalasvir]",no inhibition,no inhibition,no inhibition,no inhibition,,,,,,,,,
,,,,"COc1ccc2c(O[C@@H]3C[C@H]4C(=O)N[C@]5(C(=O)NS(=O)(=O)C6CC6)C[C@H]5/C=C\CCCCN(C)C(=O)[C@@H]4C3)cc(-c3nc(C(C)C)cs3)nc2c1C [SMV, Simeprevir, reference compound]",,strong/moderate,,strong/moderate,less than proportionally,higher than anticipated,1.7 µM,2.2 µM,35%,3 fold,6 to 19 µM,no induction,no induction
